Results: patent US20240181056A1, “CHIMERIC ANTIGEN RECEPTOR (CAR)-T CELLS” (Imperial College Innovations Limited, priority 2021, published 2024)

Assays:
[1] = tested on: T cells transduced with CART4 (tEGFR high cells); experiment: In vitro suicide assay (iC9 safety switch, CID-induced apoptosis); format: cell-based, human
Procedure: CART4 with or without iC9 cells were generated with retroviral transduction with CART4 or CART4 w/o iC9 construct. CAR-T cells were kept expanded for five to seven days after transduction. A […] (CID), the B/B homodimerizer AP20187 (Clontech Laboratories), was added at a various concentration to T cell culture. The induction of apoptosis induced by CID was evaluated 24 hr later using Annexin-v/7-AAD (BD Biosciences) staining and flow cytometry analysis. Survival cells were quantified by counting beads (BD Biosciences). Survival index was calculated as follows: number of living tEGFR^+ cells/number of living tEGFR^+ cells in untreated control samples.
In order to evaluate the efficiency of iC9 safety switch in vitro, a CART4 variation without the iC9 gene (CART4 w/o iC9) was cloned as a control. T cells transduced with CART4 or CART4 without iC9 construct were exposed to increasing concentrations of the CID AP20187 (0.1 nM to 100 nM) for 24 hours. Cell death was accessed by flow cytometry analysis with 7AAD and Annexin-V. The tEGFR-positive percentage in the survived population dropped along with the increasing concentration of the CID. […] Consistent with the observations from other studies, the cells that escape killing were those expressing low levels of the transgene with a 50% reduction in mean fluorescence intensity (MFI) of tEGFR after CID (FIG. 1E). […]

[2] = target: TCR Vbeta 7.1 chain (H. sapiens rearranged TCR Vbeta 7.1) (human); experiment: cell-based or functional assay
Chain of TCR Vbeta 7.1 chain (H. sapiens rearranged TCR Vbeta 7.1) (human) (A0A577 whole entry, form in doubt): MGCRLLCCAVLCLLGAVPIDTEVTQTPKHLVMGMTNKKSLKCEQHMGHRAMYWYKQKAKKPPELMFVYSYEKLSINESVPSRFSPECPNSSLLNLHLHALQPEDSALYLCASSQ

[3] = target: CD4 antigen (T-cell surface glycoprotein CD4 [Homo sapiens]) (human) (UniProt P01730); experiment: cell-based or functional assay

TCR Vβ7.1-positive cells remaining after transduction with control CAR (flow cytometry) [2]	CD4-positive cells remaining after transduction with control CAR (flow cytometry) [3]	Compound	reduction in mean fluorescence intensity (MFI) of tEGFR in cells that escape killing ([1]; after CID)	tEGFR high cells eliminated ([1]; single 100 nM dose of CID, 24 hours, flow cytometry 7AAD/Annexin-V)
		CC[C@H](C(=O)N1CCCC[C@H]1C(=O)O[C@H](CCc1ccc(OC)c(OC)c1)c1cccc(OCC(=O)NCC(CNC(=O)COc2cccc([C@@H](CCc3ccc(OC)c(OC)c3)OC(=O)[C@@H]3CCCCN3C(=O)[C@@H](CC)c3cc(OC)c(OC)c(OC)c3)c2)CN(C)C)c1)c1cc(OC)c(OC)c(OC)c1 [AP20187]	50%	69.1%
1.2%	45%	CART20 chimeric antigen receptor (anti-CD20 CAR with scFv of monoclonal antibody Leu16)		
